Measurements taken from paper PMC3475717, “A Spiroligomer α-Helix Mimic That Binds HDM2, Penetrates Human Cells and Stabilizes HDM2 in Cell Culture” (PLoS ONE, 2012).
Entries after “also recorded” stand apart in the source; their conditions may differ.

What was measured:
Huh7 cells = assay: cell penetration, fluorescence and confocal microscopy; assay type: cell-based, human; conditions: Huh7, 37°C
Description: Table S.7. Parameters used for the non-linear fit for the plot of the competition binding experiment.
(§1) Cell Culture and Treatment. HepG2 (expressing wild-type p53) and Huh7 (expressing mutant p53) cell lines were purchased from the American Type Culture Collection (ATCC) and cultured as monolayers in Dulbecco’s modified Eagle’s medium (DMEM) (Invitrogen) supplemented with 100 mM nonessential amino acid solution, 100 mM sodium pyruvate, 100 U/mL penicillin, 100 μg/mL streptomycin, and 10% heat inactivated fetal bovine serum (FBS) (all from Hyclone).
(§2) Cells were maintained at 37° C and 5% CO2 and were treated with media that contained 0.5%
(§3) FBS. Nutlin-3 (Sigma) was dissolved in 0.01% DMSO (Sigma). This concentration of DMSO did not affect the cell phenotype. Both nutlin-3 and spiroligomers were added into the medium for final concentrations of 2 µM, 5 µM, 10 µM and 20 µM for 24 hours. For the western blot experiments detailed below, the time length for incubation with bis-peptide was 17 hours.
Fluorescence and Confocal Microscopy. Fluorescence and confocal microscopy were applied to live and fixed cells. Cells were grown on glass chambers and fixed with ice-cold 95:5 ethanol/acetic acid for 10 minutes at -20 °C. […] Fluorescent specimens were analyzed using an ECLIPSE Ti microscope (Nikon), lenses with hardened […]
Western Blotting. […] Images were quantified using ImageJ software (NIH). […]

HepG2 cells = assay: cell penetration, fluorescence and confocal microscopy; active vs. passive transport; assay type: cell-based, human; conditions: HepG2, 37°C, 5 µM, 3.75 hours
Description: as §1, §2, §3
Fluorescence and Confocal Microscopy. Fluorescence and confocal microscopy were applied to live and fixed cells. Cells were grown on glass chambers and fixed with ice-cold 95:5 ethanol/acetic acid for 10 minutes at -20 °C. Sections were washed with PBS and mounted in Vectashield aqueous mounting medium with DAPI (Vector laboratories). Fluorescent specimens were analyzed using an ECLIPSE Ti microscope (Nikon), lenses with hardened […]
(1 picture or pasted object on this page, not shown here) […]
filters (Nikon), and a Nikon DS-Fi1 camera, which was operated by NIS Elements computer software (Nikon). Confocal microscopy was performed with a Leica SP-1 microscope, with illumination at 488 nm and spectral detection. […]
Mathematical model described8 and MxPro software (Stratagene) were used to process PCR data. End-point PCR reactions were assayed with PCR Master Mix (Promega). Samples were amplified in 34 cycles; each cycle consisted of 30 sec of denaturation at 95 °C, 30 sec of annealing at 60 °C, and 30 sec of elongation at 72 °C. After 34 cycles, samples were subjected to final elongation for 5 minutes at 72 °C. […]
fluorescence in the images.

O=C1OC2(c3ccc(O)cc3Oc3cc(O)ccc32)c2ccccc21 [fluorescein, reference compound]
uptake of fluorescence (control) (Huh7 cells): no visible uptake of fluorescence
uptake of fluorescence (control) (HepG2 cells): no visible uptake of fluorescence; also recorded: failed to produce any fluorescence
